{
  "source": "patent US7419778B2",
  "about": "“Method for high throughput cell-based assays using versatile living microarrays” (PameGene B.V., priority 2002, dated 2008)",
  "system": "E. coli XL2 Blue MRF′",
  "experiment": "Sensitivity of E. coli to kanamycin in agar plugs on flow-through (Pam) substrate, zone of clearing",
  "assay_type": "cell-based",
  "details": "12 hours at 37° C.",
  "method": "[…] The porous nature of the substrate draws the molten agar into the pores by capillary action. These treated substrates were then overlaid with 10^6 cfu/ml E. coli XL2 MRF′ cells containing plasmid pUC18 that had been grown in 2TY broth with 100 μg/ml ampicillin and placed on 2TY plates with the same concentration of ampicillin. Plates were then incubated for 12 hours at 37° C.",
  "data": [
    {"smiles": "NC[C@H]1O[C@H](O[C@H]2[C@H](O)[C@@H](O[C@H]3O[C@H](CO)[C@@H](O)[C@H](N)[C@H]3O)[C@H](N)C[C@@H]2N)[C@H](O)[C@@H](O)[C@@H]1O", "note": "[Kanamycin, kanamycin]", "values": [
      {"measurement": "Zone of clearing (diameter mm)", "setting": "10 ng kanamycin, N=12", "result": 0.4, "unit": "mm"},
      {"measurement": "Zone of clearing (diameter mm)", "setting": "100 ng kanamycin, N=16", "result": 2.1, "unit": "mm"},
      {"measurement": "Zone of clearing (diameter mm)", "setting": "1000 ng kanamycin, N=12", "result": 3.5, "unit": "mm"}
    ]}
  ]
}
